Measured values: patent US6372774B1, “Derivatives of N-phenylpyrazoles” (Rhone-Poulenc Agriculture Ltd., priority 1985, dated 2002)
Where two headings read alike, the source gives them in different places.

Tests used:
Type in all cases: in vivo
[1] = test system: Megoura viciae (Vetch Aphid); experiment: Test 3 b): spray of infested tic bean plants, Megoura viciae; settings: for score from 4 replicates, Megoura viciae: Test 3 method (b), application of 50 ppm, score 0-3 per replicate, maximum 12; for mortality at 50 ppm: Megoura viciae, read-out: mortality of Megoura viciae; for Megoura score/12 50 ppm: Tables 1 and 3, sum of scores 0-3 of 4 replicates
Method: (§1) One or more dilutions of the compounds to be tested were made in 50% aqueous acetone.
b) Megoura viciae (Vetch Aphid)
Potted tic bean plants previously infected with mixed stages of Megoura were sprayed to run-off using a laboratory turntable sprayer. Treated plants were held in a greenhouse for 2 days and were assessed for aphid mortality using a scoring system, judging the response in comparison with plants treated with 50% aqueous acetone alone, as controls.

[2] = test system: Phaedon cochleariae (Mustard Beetle); experiment: Test 3 a): leaf disc spray test, Phaedon cochleariae larvae; settings: for pest or weed control at 10 ppm / mortality at 5 ppm: Phaedon cochleariae, foliar; for pest or weed control at 10 ppm: read-out: Phaedon % m 10 ppm; for mortality at 5 ppm: read-out: mortality of larvae of Phaedon cochleariae
Description: as §1
(§2) a) Test species: Plutella xylostella (Diamond-back Moth) and Phaedon cochleariae (Mustard Beetle)
(§3) Turnip leaf discs were set in agar in petri-dishes and infected with 10 larvae (2nd instar Plutella or 3rd instar Phaedon). Four replicate dishes were assigned to each treatment and were sprayed under a Potter Tower with the appropriate test dilution. Four or five days after treatment the dishes were removed from the constant temperature (25° C.) room in which they had been held and the mean percentage mortalities of larvae were determined.

[3] = test system: Plutella xylostella (Diamond-back Moth); experiment: whole plant or invertebrate; settings: foliar; for mortality at 500 ppm: read-out: mortality of larvae of Plutella xylostella
Description: as §1, §2, §3

[4] = Tables 1-3, % mortality at 10 ppm

Molecule: 5-Amino-3-chlorodifluoromethyl-1-(2,6-dichloro-4-trifluoromethylphenyl)-4-cyanopyrazole [Compound 128]
- score from 4 replicates, Megoura viciae [1]: 12
- Phaedon % m 10 ppm [2, 4]: 100%

Molecule: 5-Amino-3-chlorofluoromethyl-4-cyano-1-(2,6-dichloro-4-trifluoromethylphenyl)pyrazole [Compound 166]
- score from 4 replicates, Megoura viciae [1]: 12

Molecule: Cc1nn(-c2c(Cl)cc(C(F)(F)F)cc2Cl)c(N)c1C#N [Compound 112, 5-Amino-4-cyano-1-(2,6-dichloro-4-trifluoromethylphenyl)-3-methylpyrazole]
- mortality at 50 ppm [1]: 100%
- score from 4 replicates, Megoura viciae [1]: 12
- pest or weed control at 10 ppm [2]: 98%

Molecule: N#Cc1c(Cl)nn(-c2c(Cl)cc(C(F)(F)F)cc2Cl)c1N [Compound 114, 5-Amino-3-chloro-4-cyano-1-(2,6-dichloro-4-trifluoromethylphenyl)pyrazole]
- Megoura score/12 50 ppm [1]: 9
- mortality at 500 ppm [3]: 100%
- pest or weed control at 10 ppm [2]: 100%

Molecule: N#Cc1c(Br)nn(-c2c(Cl)cc(C(F)(F)F)cc2Cl)c1N [Compound 115, 5-Amino-3-bromo-4-cyano-1-(2,6-dichloro-4-trifluoromethylphenyl)pyrazole]
- Megoura score/12 50 ppm [1]: 10
- mortality at 500 ppm [3]: 100%
- pest or weed control at 10 ppm [2]: 100%

Molecule: CCSNc1c(C#N)c(C)nn1-c1c(Cl)cc(C(F)(F)F)cc1Cl [Compound 117, 4-Cyano-1-(2,6-dichloro-4-trifluoromethylphenyl)-3-methyl-5-ethanesulphenylaminopyrazole]
- Megoura score/12 at 10 ppm ([1]; Table 3, value marked +: score at 10 ppm): 10+
- pest or weed control at 10 ppm [2]: 68%

Molecule: Cc1c(C#N)c(C(F)(F)F)nn1-c1c(Cl)cc(C(F)(F)F)cc1Cl [Compound 152, 4-Cyano-1-(2,6-dichloro-4-trifluoromethylphenyl)-5-methyl-3-trifluoromethylpyrazole]
- mortality at 500 ppm [3]: 100%
- pest or weed control at 10 ppm [2]: 100%

Molecule: CN(C)S(=O)(=O)c1c(C(F)(F)F)nn(-c2c(Cl)cc(C(F)(F)F)cc2Cl)c1N [Compound 153, 5-Amino-1-(2,6-dichloro-4-trifluoromethylphenyl)-4-(N,N-dimethylsulphamoyl)-3-trifluoromethylpyrazole]
- Megoura score/12 50 ppm [1]: 11
- pest or weed control at 10 ppm [2]: 100%

Molecule: N#Cc1c(C(F)(F)C(F)(F)C(F)(F)F)nn(-c2c(Cl)cc(C(F)(F)F)cc2Cl)c1N [Compound 155, 5-Amino-4-cyano-1-(2,6-dichloro-4-trifluoromethylphenyl)-3-heptafluoropropylpyrazole]
- pest or weed control at 500 ppm ([3]; Tables 1-2, % mortality at 500 ppm, read-out: Plutella % m 500 ppm): 96%
- pest or weed control at 10 ppm [2, 4]: 100%

Molecule: N#Cc1nn(-c2c(Cl)cc(SC(F)(F)F)cc2Cl)c(N)c1C#N [Compound 156, 5-Amino-3,4-dicyano-1-(2,6-dichloro-4-trifluoromethylthiophenyl)pyrazole]
- mortality at 50 ppm [1]: 100%
- score from 4 replicates, Megoura viciae [1]: 12

Molecule: Cc1nn(-c2c(Cl)cc(C(F)(F)F)cc2Cl)c(N)c1S(C)(=O)=O [Compound 161, 5-Amino-1-(2,6-dichloro-4-trifluoromethylphenyl)-4-methanesulphonyl-3-methylpyrazole]
- mortality at 50 ppm [1]: 100%
- score from 4 replicates, Megoura viciae [1]: 12
- mortality at 5 ppm [2]: 100%

Molecule: N#Cc1c(C(F)(F)F)nn(-c2c(Cl)cc(SC(F)(F)F)cc2Cl)c1N [Compound 165, 5-Amino-4-cyano-1-(2,6-dichloro-4-trifluoromethylthiophenyl)-3-trifluoromethylpyrazole]
- mortality at 50 ppm [1]: 100%
- score from 4 replicates, Megoura viciae [1]: 12
- mortality at 5 ppm [2]: 100%

Molecule: CC(C)(C)C(=O)Nc1c([N+](=O)[O-])c(C(F)(F)F)nn1-c1c(Cl)cc(C(F)(F)F)cc1Cl [Compound 178, 1-(2,6-Dichloro-4-trifluoromethylphenyl)-4-nitro-3-trifluoromethyl-5-trimethylacetylaminopyrazole]
- mortality at 500 ppm [3]: 100%
- mortality at 5 ppm [2]: 100%

Molecule: CCOC(=O)Nc1c([N+](=O)[O-])c(C(F)(F)F)nn1-c1c(Cl)cc(C(F)(F)F)cc1Cl [Compound 179, 1-(2,6-Dichloro-4-trifluoromethylphenyl)-5-ethoxycarbonylamino-4-nitro-3-trifluoromethylpyrazole]
- mortality at 500 ppm [3]: 100%
- mortality at 5 ppm [2]: 100%

Molecule: CCOC(=O)Nc1c(S(C)(=O)=O)c(C(F)(F)F)nn1-c1c(Cl)cc(C(F)(F)F)cc1Cl [Compound 187, 1-(2,6-Dichloro-4-trifluoromethylphenyl)-5-ethoxycarbonylamino-4-methanesulphonyl-3-trifluoromethylpyrazole]
- mortality at 500 ppm [3]: 100%
- mortality at 5 ppm [2]: 100%

Molecule: CCOC(=O)Nc1c(C#N)c(C#N)nn1-c1c(Cl)cc(C(F)(F)F)cc1Cl [Compound 188, 1-(2,6-Dichloro-4-trifluoromethylphenyl)-3,4-dicyano-5-ethoxycarbonylaminopyrazole]
- mortality at 500 ppm [3]: 100%
- mortality at 5 ppm [2]: 100%

Molecule: Cc1nn(-c2c(Cl)cc(C(F)(F)F)cc2Cl)c(N)c1I [Compound 190, 5-Amino-1-(2,6-dichloro-4-trifluoromethylphenyl)-4-iodo-3-methylpyrazole]
- mortality at 50 ppm [1]: 100%
- score from 4 replicates, Megoura viciae [1]: 12

Molecule: Cc1nn(-c2c(Cl)cc(C(F)(F)F)cc2Cl)c(N)c1[N+](=O)[O-] [Compound 191, 5-Amino-1-(2,6-dichloro-4-trifluoromethylphenyl)-3-methyl-4-nitropyrazole]
- mortality at 50 ppm [1]: 100%
- score from 4 replicates, Megoura viciae [1]: 12

Molecule: O=[N+]([O-])c1cn(-c2c(Cl)cc(C(F)(F)F)cc2Cl)nc1C(F)(F)F [Compound 193, 1-(2,6-Dichloro-4-trifluoromethylphenyl)-4-nitro-3-trifluoromethylpyrazole]
- mortality at 500 ppm [3]: 100%
- mortality at 5 ppm [2]: 100%

Molecule: N#Cc1cn(-c2c(Cl)cc(C(F)(F)F)cc2Cl)nc1[N+](=O)[O-] [Compound 200, 1-(2,6-Dichloro-4-trifluoromethylphenyl)-4-cyano-3-nitropyrazole]
- mortality at 50 ppm [1]: 100%
- score from 4 replicates, Megoura viciae [1]: 12

Molecule: N#Cc1nn(-c2c(Cl)cc(C(F)(F)F)cc2Cl)c([N+](=O)[O-])c1C#N [Compound 201, 1-(2,6-Dichloro-4-trifluoromethylphenyl)-3,4-dicyano-5-nitropyrazole]
- mortality at 50 ppm [1]: 100%
- score from 4 replicates, Megoura viciae [1]: 12

Molecule: CC(C)(C)[Si](C)(C)c1c(C#N)c(C(F)(F)F)nn1-c1c(Cl)cc(C(F)(F)F)cc1Cl [Compound 206, 5-tert.-Butyldimethylsilyl-4-cyano-1-(2,6-dichloro-4-trifluoromethylphenyl)-3-trifluoromethylpyrazole]
- mortality at 50 ppm [1]: 100%
- score from 4 replicates, Megoura viciae [1]: 12
- mortality at 5 ppm [2]: 100%

Molecule: CSc1c(C#N)c(C(F)(F)F)nn1-c1c(Cl)cc(C(F)(F)F)cc1Cl [Compound 207, 4-Cyano-1-(2,6-dichloro-4-trifluoromethylphenyl)-5-methylthio-3-trifluoromethylpyrazole]
- mortality at 500 ppm [3]: 100%
- mortality at 5 ppm [2]: 100%

Molecule: COC(=O)Nc1c(C#N)c(C(F)(F)F)nn1-c1c(Cl)cc(C(F)(F)F)cc1Cl [Compound 212, 4-Cyano-1-(2,6-dichloro-4-trifluoromethylphenyl)-5-methoxycarbonylamino-3-trifluoromethylpyrazole]
- mortality at 500 ppm [3]: 100%
- mortality at 5 ppm [2]: 100%

Molecule: C[S+]([O-])c1c(C(F)(F)F)nn(-c2c(Cl)cc(C(F)(F)F)cc2Cl)c1N (centres unmarked) [Compound 216, 5-Amino-1-(2,6-dichloro-4-trifluoromethylphenyl)-4-methylsulphinyl-3-trifluoromethylpyrazole]
- mortality at 500 ppm [3]: 100%
- mortality at 5 ppm [2]: 100%

Molecule: CC[S+]([O-])c1c(C(F)(F)F)nn(-c2c(Cl)cc(C(F)(F)F)cc2Cl)c1N (centres unmarked) [Compound 217, 5-Amino-1-(2,6-dichloro-4-trifluoromethylphenyl)-4-ethylsulphinyl-3-trifluoromethylpyrazole]
- mortality at 50 ppm [1]: 100%
- score from 4 replicates, Megoura viciae [1]: 12
- mortality at 5 ppm [2]: 100%

Molecule: Cc1nn(-c2c(Cl)cc(C(F)(F)F)cc2Cl)c(N)c1S(=O)(=O)C(Cl)(Cl)Cl [Compound 224, 5-Amino-1-(2,6-dichloro-4-trifluoromethylphenyl)-4-trichloromethanesulphonyl-3-methylpyrazole]
- mortality at 50 ppm [1]: 100%
- score from 4 replicates, Megoura viciae [1]: 12
- mortality at 5 ppm [2]: 100%

Molecule: CCSc1c(C)nn(-c2c(Cl)cc(C(F)(F)F)cc2Cl)c1N [Compound 225, 5-Amino-1-(2,6-dichloro-4-trifluoromethylphenyl)-4-ethylthio-3-methylpyrazole]
- mortality at 50 ppm [1]: 100%
- score from 4 replicates, Megoura viciae [1]: 12

Molecule: CSc1c(C)nn(-c2c(Cl)cc(C(F)(F)F)cc2Cl)c1N [Compound 226, 5-Amino-1-(2,6-dichloro-4-trifluoromethylphenyl)-3-methyl-4-methylthiopyrazole]
- mortality at 50 ppm [1]: 100%
- score from 4 replicates, Megoura viciae [1]: 12
- mortality at 5 ppm [2]: 100%

Molecule: CSc1c(C(F)(F)F)nn(-c2c(Cl)cc(C(F)(F)F)cc2Cl)c1N [Compound 229, 5-Amino-1-(2,6-dichloro-4-trifluoromethylphenyl)-4-methylthio-3-trifluoromethylpyrazole]
- mortality at 500 ppm [3]: 100%
- mortality at 5 ppm [2]: 100%
